“Also recorded” adds a separate entry of the source.
Legend:
Type in all cases: in vivo
RARα = experiment: RAR induction in lung of A/J mice exposed to isotretinoin aerosols (Western blot); conditions: inhaled mid dose isotretinoin, urethane-treated A/J mice, relative to vehicle-exposed
Protocol: (§1) Antibodies: Polyclonal antibodies to RARα, β and γ (Santa Cruz Biotechnology Inc., San Francisco, CA) were used with a BM Chemiluminescence Western Blotting Kit (Mouse/Rabbit) (Boehringer Mannheim Corporation, Indianapolis).
(§2) Experimental Design: Five lungs each from the urethane-treated vehicle, low dose, and mid dose animals were snap frozen in liquid nitrogen and stored at -70°C for determination of RARs α, β and γ by Western Blot Analysis. In addition, five lungs each from urethane-injected unexposed mice, and untreated control mice were designated for Westerns. The lungs were homogenized and the RARs were determined by standard Western Blotting (21, 22). Due to deaths early in the high dose experiment, no lungs were available for Western Blot Analysis for the high dose exposures, i.e. all tissue was used for lesion quantitation purposes.
(§3) Samples: Lung tissue was collected, frozen on dry ice and kept at -70°C until used. A 500 mg portion was diced in small pieces and homogenized in 300 µl of cold PBS using a hand held homogenizer for 2-3 min. Samples were centrifuged at 500 rpm for 5 min or until the supernatant was clear. The pellet was suspended in 400 µl of cold Buffer A [2 µl 0.5 M EDTA, 10 µl 1 mM EGTA, 50 µl 100 mM PMSF, 10 µl 1M DTT, 10 ml (10 mM HEPES pH 7.9 + 10 mM KCl)], and left at ice temperature for 15 min. A 25 µl volume of 10% solution of NP-40 was added and the samples were mixed in a vortex vigorously for 10 sec. Samples were centrifuged at 14,000 rpm for 1 min at 4°C and the pellet was treated once more in this fashion. The supernatant was removed and 25 - 100 µl of Buffer C [4 µl 0.5 M EDTA, 20 µl 100 mM EGTA, 20 µl 0.1 M PMSF, 2 µl 1 M DTT, 2 ml (20 mM HEPES pH 7.9 + 0.4M NaCl)] was added. Pellets were resuspended by tapping gently on the bottom of the Eppendorf tube. Samples were rocked vigorously in a bucket of ice on an orbitor shaker for 30 min. Samples were centrifuged at 14,000 rpm for 5 min at 4°C. Supematants were kept frozen at -70°C until needed. Protein concentration determination was conducted by the Bradford method (23). […]

RARβ = experiment: as above; conditions: inhaled mid dose isotretinoin, urethane-treated A/J mice, relative to vehicle-exposed
Protocol: as §1, §2, §3

RARγ = experiment: as above; conditions: inhaled mid dose isotretinoin, urethane-treated A/J mice, relative to vehicle-exposed
Protocol: as §1, §2, §3

RARs = experiment: RAR induction in lung of A/J mice exposed to isotretinoin aerosols, all three RARs; conditions: lungs exposed to mid levels of isotretinoin, urethane-treated mice
Protocol: as §1, §2
Samples: Lung tissue was collected, frozen on dry ice and kept at -70°C until used. A 500 mg portion was diced in small pieces and homogenized in 300 µl of cold PBS using a hand held homogenizer for 2-3 min. Samples were centrifuged at 500 rpm for 5 min or until the supernatant was clear. The pellet was suspended in 400 µl of cold Buffer A [2 µl 0.5 M EDTA, 10 µl 1 mM EGTA, 50 µl 100 mM PMSF, 10 µl 1M DTT, 10 ml (10 mM HEPES pH 7.9 + 10 mM KCl)], and left at ice temperature for 15 min. […]

Lung Tumorigenesis = experiment: Lung tumorigenesis inhibition by inhaled isotretinoin in carcinogen-treated A/J mice; conditions: for reductions of tumor multiplicity (non-significant): low dose; for reductions in multiplicity of tumor nodules: mid isotretinoin dose
Text: The A/J mouse is a well-established animal model for preclinical chemoprevention studies. This strain has a hereditary predisposition for lung cancer, the so-called pulmonary adenoma susceptibility (Pas) genes. A strong candidate for one of these genes, Pas-1, is the K-ras protooncogene. Carcinogenesis in this model with NNK as the inciting agent has been studied so that the times required to develop hyperplastic areas, adenomas, and carcinomas are well known. In addition, the timing of molecular changes associated with carcinogenesis has been studied and are similar to those in humans. In both species, K-ras mutations are common early events.
Within 24 h of the last inhalation exposure, animals were euthanized by intraperitoneal injection of pentobarbital and their lungs were removed and fixed in Bouin's solution or flash frozen for RAR determination. The lungs were evaluated in a blinded fashion so that neither carcinogen nor isotretinoin dose levels were known to the evaluator, who visually counted hyperplastic areas and adenomas on the lung pleural surface as previously described The significance of the differences between the mean tumor incidence of the treatment and the control groups was determined using the Mann-Whitney Rank Sum test (Statmost TM, DataMost Corp., Sandy, Utah).

CC1=C(/C=C/C(C)=C/C=C/C(C)=C\C(=O)O)C(C)(C)CCC1 [13-cis RA, 13-cis-Retinoic Acid]
upregulated lung tissue RAR α over solvent (RARα): 3.9 fold | upregulated lung tissue RAR β over solvent (RARβ): 3.3 fold | upregulated lung tissue RAR γ over solvent (RARγ): 3.7 fold | induction of all three RARs (RARs): at least three fold | reductions of tumor multiplicity (non-significant) (Lung Tumorigenesis; BaP treated mice, p<0.13): 30% | reductions of tumor multiplicity (non-significant) (Lung Tumorigenesis; NNK treated mice, p<0.30): 16% | effect on numbers of tumors (Lung Tumorigenesis; low isotretinoin dose): not affected by treatment at the 95% confidence level; also recorded: not significantly effective | reductions in multiplicity of tumor nodules (Lung Tumorigenesis; BaP-treated mice): 67% | reductions in multiplicity of tumor nodules (Lung Tumorigenesis; NNK-treated mice): 88%
